This experiment concerns rat TTR gene. In words: In vivo editing of TTR in rat liver after LNP delivery (NGS, % editing). On the set-up: species or system rat (Sprague-Dawley). The conditions noted are these: for Mean % editing in rat liver: NGS, dose 0.03 mpk, LNP with G000534 sgRNA and Cas9 mRNA 1:2 w/w, 3% C13 Ether (Compound 53: 3% PEG2K-DMG), N=5 (Compound 33: N=4). Summed up: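 Four-component LNPs (ionizable amine lipid, DSPC, cholesterol, PEG lipid) carried Cas9 mRNA and a chemically modified sgRNA against rat TTR, made by impinging jet mixing at an N:P near 6. They were injected into the lateral tail vein of female Sprague-Dawley rats. Liver genomic DNA collected at 6 or 7 days was amplicon-sequenced on Illumina MiSeq to calculate percent indels.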

[1] abbreviates: Experiment 7, 0.1 mpk, LNP with PEG2K-DMG.
[2] abbreviates: Experiment 10, 0.1 mpk, LNP with PEG2K-DMG.
[3] abbreviates: Experiment 11, 0.1 mpk, LNP with PEG2K-DMG.
Setting [4] is: Experiment 13, 0.03 mpk, LNP with PEG2K-DMG.
Setting [5] is: Table 8, 0.03 mpk, LNP with C13 Ether.
[6] abbreviates: Experiment 1, 0.1 mpk, LNP with PEG2K-DMG.
[7] abbreviates: Experiment 2, 0.1 mpk, LNP with PEG2K-DMG.
Setting [8] is: Experiment 3, 0.1 mpk, LNP with PEG2K-DMG.
The mark [9] stands for this setting: Table 6, 0.03 mpk, PEG lipid C13 Ether.
Where [10] appears, read: Table 6, 0.03 mpk, PEG lipid C14 Ether.
The mark [11] stands for this setting: Table 6, 0.03 mpk, PEG lipid PEG2K-DMG.

Each structure is given as a SMILES string.

Under setting [1], `CCCCCCCCCCCC(=O)OCC(COC(=O)CCC(OCCCCCCCC)OCCCCCCCC)COC(=O)OCCCN(CC)CC` (centres unmarked) [Compound 41, 3-((4,4-bis(octyloxy)butanoyl)oxy)-2-((((3-(diethylamino)propoxy)carbonyl)oxy)methyl)propyl Dodecanoate] registered a Mean % editing of 5.8%.

`CCCCCCCCOC(CCC(=O)OCC(COC(=O)CC(CCCC)CCCCCC)COC(=O)OCCCN(CC)CC)OCCCCCCCC` (centres unmarked) [Compound 43, 3-((4,4-bis(octyloxy)butanoyl)oxy)-2-((((3-(diethylamino)propoxy)carbonyl)oxy)methyl)propyl 3-butylnonanoate]: the Mean % editing under setting [1] was 57.5%.

As to `CCCCCCCCOC(CCC(=O)OCC(COC(=O)NCCN(CC)CC)COC(=O)C(CCCC)CCCCCC)OCCCCCCCC` (centres unmarked) [Compound 48, 3-((4,4-bis(octyloxy)butanoyl)oxy)-2-((((2-(diethylamino)ethyl)carbamoyl)oxy)methyl)propyl 2-butyloctanoate], the Mean % editing under setting [1] is on record as 55.0%.

In turn, `CCCCC/C=C\C/C=C\CCCCCCCC(=O)OCC(COC(=O)CCCC(=O)OC(CCCCCCCC)CCCCCCCC)COC(=O)N(C)CCN(CC)CC` (centres unmarked) [Compound 49, 3-(((2-(diethylamino)ethyl)(methyl)carbamoyl)oxy)-2-((((9Z,12Z)-octadeca-9,12-dienoyl)oxy)methyl)propyl heptadecan-9-yl Glutarate] returned a Mean % editing under setting [2] of 47.1%.

As to `CCCCC/C=C\C/C=C\CCCCCCCC(=O)OCC(COC(=O)CCCC(=O)OC(CCCCCCCC)CCCCCCCC)COC(=O)NCCN1CCCCCC1` (centres unmarked) [Compound 50, 3-(((2-(azepan-1-yl)ethyl)carbamoyl)oxy)-2-((((9Z,12Z)-octadeca-9,12-dienoyl)oxy)methyl)propyl heptadecan-9-yl Glutarate], the Mean % editing under setting [2] stood at 53.1%.

Under setting [3], `CCCCCCCCC(CCCCCCCC)OC(=O)CCCCCC(=O)OCC(CCCCCCCCC(=O)OCC(CCCC)CCCCCC)COC(=O)NCCN(CC)CC` (centres unmarked) [Compound 51, 1-(11-((2-butyloctyl)oxy)-2-((((2-(diethylamino)ethyl)carbamoyl)oxy)methyl)-11-oxoundecyl) 7-(heptadecan-9-yl) heptanedioate] came in with a Mean % editing of 60.0%.

As to `CCCCCCCCC(CCCCCCCC)OC(=O)CCCCCCC(=O)OCC(COC(=O)CCCCCCC(=O)OC(CCCCCCCC)CCCCCCCC)COC(=O)NCCN(CC)CC` [Compound 52, O′1,O1-(2-((((2-(diethylamino)ethyl)carbamoyl)oxy)methyl)propane-1,3-diyl) 8,8′-di(heptadecan-9-yl) di(octanedioate)], the “Mean % editing in rat liver” value stood at 11.9%. Besides, the Mean % editing under setting [4] is on record as 9.0%. Further, the Mean % editing under setting [5] amounted to 7.0%.

As for `CCCCC/C=C\C/C=C\CCCCCCCC(=O)OCC(COC(=O)CCC(OCCCCCCCC)OCCCCCCCC)COC(=O)OCCCN(CC)CC` (centres unmarked) [Compound 53], the “Mean % editing in rat liver” value came out at 9.9%. Under setting [6], the Mean % editing was 38.6%. For the same compound, under setting [7], the Mean % editing worked out at 55.2%. The compound also registered a Mean % editing under setting [8] of 41.4%. In addition, the Mean % editing (Experiment 4, 0.1 mpk, LNP with PEG2K-DMG) was 41.8%. The compound also registered a Mean % editing (Experiment 5, 0.1 mpk, LNP with PEG2K-DMG) of 42.8%. The compound also yielded a Mean % editing (Experiment 6, 0.1 mpk, LNP with PEG2K-DMG) of 47.1%. In addition, under setting [1], the Mean % editing is 31.5%. The compound further came in with a Mean % editing (Experiment 8, 0.1 mpk, LNP with PEG2K-DMG) of 47.8%. In addition, the Mean % editing (Experiment 9, 0.1 mpk, LNP with PEG2K-DMG) came out at 42.6%. The compound further showed a Mean % editing under setting [2] of 44.2%. The compound further displayed a Mean % editing under setting [3] of 42.0%. Under setting [4], this compound had a Mean % editing of 8.5%. Under setting [9], this compound returned a Mean % editing of 7.5%. Further, the Mean % editing under setting [10] worked out at 4.2%. Also, the Mean % editing under setting [11] turned out to be 9.6%.

With `CCCCC/C=C\C/C=C\CCCCCCCC(=O)OCC(COC(=O)CCC(OCCCCCCCC)OCCCCCCCC)COC(=O)NCCN(CC)CC` (centres unmarked) [Compound 54], the Mean % editing under setting [6] is recorded as 36.9%.

For `CCCCCCCCCOC(=O)CCCCCCCN(CCO)CCCCCCCC(=O)OC(CCCCCCCC)CCCCCCCC` [Compound 55], the Mean % editing under setting [3] stood at 13.2%.

For the compound `CCCCC/C=C\C/C=C\CCCCCCCC(=O)OCC(COC(=O)CCCC(=O)OC(CCCCCCCC)CCCCCCCC)COC(=O)OCCCN(CC)CC` (centres unmarked) [Compound 56], the Mean % editing runs as follows: under setting [7], 50.9%; under setting [2], 53.0%.

For `CCCCC/C=C\C/C=C\CCCCCCCC(=O)OCC(COC(=O)CCCCCC(=O)OC(CCCCCCCC)CCCCCCCC)COC(=O)OCCCN(CC)CC` (centres unmarked) [Compound 57], the Mean % editing by setting is: under setting [7], 46.7%; under setting [8], 39.5%.

For the compound `CCCCC/C=C\C/C=C\CCCCCCCC(=O)OCC(COC(=O)CCCC(=O)OC(CCCCCCCC)CCCCCCCC)COC(=O)NCCN(CC)CC` (centres unmarked) [Compound 58], the Mean % editing is, setting by setting: under setting [6], 44.7%; under setting [7], 60.4%; under setting [2], 56.5%.

Turning to `CCCCC/C=C\C/C=C\CCCCCCCC(=O)OCC(COC(=O)CCCCCC(=O)OC(CCCCCCCC)CCCCCCCC)COC(=O)NCCN(CC)CC` (centres unmarked) [Compound 59], the Mean % editing under setting [6] was determined as 36.7% and the Mean % editing under setting [7] is 53.4%.

Take `CCCCCCCCC(CCCCCCCC)OC(=O)CCCCCCC(=O)OCC(COC(=O)CCCCCCC(=O)OC(CCCCCCCC)CCCCCCCC)COC(=O)OCCCN(CC)CC` [Compound 60]: the Mean % editing is given as 8.1% under setting [4], 10.1% under setting [9], 6.4% under setting [10] and 12.0% under setting [11].

`CCCCCCCCC(CCCCCCCC)OC(=O)CCCCCCC(=O)OCC(COC(=O)CCCCCCC(=O)OC(CCCCCCCC)CCCCCCCC)COC(=O)NCCCN(CC)CC` [Compound 61] had a Mean % editing under setting [4] of 0.2%.

Compound `CCCCCCCCC(CCCCCCCC)CC(=O)OCCC(=O)OCC(COC(=O)CCCC(=O)OC(CCCCCCCC)CCCCCCCC)COC(=O)NCCN(CC)CC` (centres unmarked) [Compound 63, 3-(((2-(diethylamino)ethyl)carbamoyl)oxy)-2-(((3-((3-octylundecanoyl)oxy)propanoyl)oxy)methyl)propyl heptadecan-9-yl Glutarate] registered a Mean % editing under setting [5] of 0.1%.

With `CCCCCCCCC(CCCCCCCC)OC(=O)CCCCCC(=O)OCC(COC(=O)CCCCCC(=O)OC(CCCCCCCC)CCCCCCCC)COC(=O)OCCCN1CCCC1` [Compound 64, 7,7′-di(heptadecan-9-yl) O′1,O1-(2-((((3-(pyrrolidin-1-yl)propoxy)carbonyl)oxy)methyl)propane-1,3-diyl) di(heptanedioate)], the “Mean % editing in rat liver” value is recorded as 2.0%.

For `CCCCCCCCC(CCCCCCCC)OC(=O)CCCCCCC(=O)OCC(COC(=O)CCCCCCC(=O)OC(CCCCCCCC)CCCCCCCC)COC(=O)OCCCN1CCCC1` [Compound 65, 8,8′-di(heptadecan-9-yl) O′1,O1-(2-((((3-(pyrrolidin-1-yl)propoxy)carbonyl)oxy)methyl)propane-1,3-diyl) di(octanedioate)], the “Mean % editing in rat liver” value is reported as 4.5%.

For the compound `CCCCCCCCC(CCCCCCCC)OC(=O)CCCCCCC(=O)OCC(CC)(COC(=O)CCCCCCC(=O)OC(CCCCCCCC)CCCCCCCC)COC(=O)NCCN(CC)CC` [Compound 66, O′1,O1-(2-((((2-(diethylamino)ethyl)carbamoyl)oxy)methyl)-2-ethylpropane-1,3-diyl) 8,8′-di(heptadecan-9-yl) di(octanedioate)], the “Mean % editing in rat liver” value is given as 9.5%.

As for `CCCCCCCCC(CCCCCCCC)OC(=O)CCCCCCC(=O)OCC(CC)(COC(=O)CCCCCCC(=O)OC(CCCCCCCC)CCCCCCCC)COC(=O)OCCCN1CCCC1` [Compound 67, O′1,O1-(2-ethyl-2-((((3-(pyrrolidin-1-yl)propoxy)carbonyl)oxy)methyl)propane-1,3-diyl) 8,8′-di(heptadecan-9-yl) di(octanedioate)], the “Mean % editing in rat liver” value came out at 1.6%.

On to `CCCCCCCCC(CCCCCCCC)OC(=O)CCCCC(=O)OCC(COC(=O)CCCCC(=O)OC(CCCCCCCC)CCCCCCCC)COC(=O)NCCN(CC)CC` [Compound 68, O,O′-(2-((((2-(diethylamino)ethyl)carbamoyl)oxy)methyl)propane-1,3-diyl) di(heptadecan-9-yl) diadipate], for which the “Mean % editing in rat liver” value is recorded as 17.1%.

Source of the values: US20260337153A1, “IONIZABLE AMINE LIPIDS” (Intellia Therapeutics, Inc., priority 2023, published 2026).
